From PubChem BioAssay AID179 (DTP/NCI, 2004)
Calls of active or inactive are those of the source.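 How the source made its calls: active means compounds giving half or more protection of infected cells from virus-caused growth loss, again on retest; inactive means the rest.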 Where a SMILES comes first, the peptide text is derived from it.

System: CEM cells HIV-1 protection, formazan growth assay
Assay: NCI AIDS Antiviral Assay
Settings: for IC50: measured here: growth of uninfected CEM cells
How it was run: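 Protection of CEM cells against HIV-1 measured as cell growth via soluble formazan read-out, with five concentrations tested on both infected and uninfected cells; failure to protect may reflect toxicity.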

| SMILES | outcome | EC50 | IC50 |
| --- | --- | --- | --- |
| Cc1cn(C(C)OCCN(O)C(N)=O)c(=O)[nH]c1=O (centres undefined) | inactive |  |  |
| CC1(C)OC(=O)c2cc(C(=CCCBr)c3cc(Cl)c4c(c3)C(=O)OC(C)(C)O4)cc(Cl)c2O1 |  | > 100 µM | 41.7 µM |
| c1ccc2c(OCCSCCCCCCCCCCSCCOc3cccc4ccccc34)cccc2c1 |  | > 5.01 µM | > 5.01 µM |
| O=C1NC(=S)S/C1=C/c1ccco1 |  | > 123 µM | 72.4 µM |
| COc1ccc2cc1Oc1ccc(cc1)CC1c3cc4c(cc3CCN1C)Oc1c(OC)cc3c(c1O4)C(C2)N(C)CC3 (centres undefined) | inactive |  |  |
| O=c1c(O)c(-c2ccc(O)c(O)c2)oc2cc(O)cc(O)c12 | inactive |  |  |
| C[C@]12CC[C@H](O)CC1=CCC1C2CC[C@@]2(C)C1CC[C@@H]2COS(=O)(=O)O (some centres undefined) |  | > 61.7 µM | > 61.7 µM |
| O=S(=O)(NCCSSCCNS(=O)(=O)c1ccccc1)c1ccccc1 |  | > 200 µM | 13.5 µM |
| CC1=CC(C)=Nc2ccc(C)cc2N1 |  | > 200 µM | 195 µM |
| CC(=O)O[C@H]1CC[C@@]2(C)C(=CC[C@H]3C4=CC=C(C(C)=O)[C@@]4(C)CCC32)C1 (some centres undefined) | inactive |  |  |
| CC(=O)Nc1ccc(-n2[nH]c(=O)n(C)c2=O)cc1 |  | > 100 µM | > 100 µM |
| CC(=O)c1ccc(NC(=O)C(=O)CC(=O)c2sc(-n3nc(-c4ccccc4)cc3-c3ccccc3)nc2C)cc1 |  | > 155 µM | > 155 µM |
| CCOc1ccccc1NC(=O)CCC(=O)OC |  | > 1000 µM | > 1000 µM |
| N#CC(N)(C(=O)C(=O)NCCCNC(=O)C(=O)C(N)(C#N)c1ccc(Cl)cc1)c1ccc(Cl)cc1 (centres undefined) |  | > 174 µM | > 174 µM |
| O=S(=O)(O)SCNCNCCSCc1ccccc1 |  | > 138 µM | 45.7 µM |
| COc1ccc(C2Nc3ccccc3NC3CC(C)(C)CC(=O)C32)cc1 (centres undefined) |  | > 257 µM | 178 µM |
| Cc1ccc(S(=O)(=O)C(CC(NC=O)S(=O)(=O)c2ccc(C)cc2)NC=O)cc1 (centres undefined) | inactive |  |  |
| COc1cc(/C=N/NC2=NCCCN2)ccc1O |  | > 200 µM | > 200 µM |
| N=C(N)c1ccc(N=Nc2ccc(N)cc2N)cc1 |  | > 200 µM | 51.3 µM |
| Cc1cc(Cl)ccc1NC(=O)CC1SC(=Nc2ccccc2Cl)NC1=O (centres undefined) |  | > 89.1 µM | 43.7 µM |
| Cc1cn(C2C[C@H](O)[C@]3(CO)C[C@H]23)c(=O)[nH]c1=O (some centres undefined) |  | > 100 µM | > 100 µM |
| COc1ccc(S(=O)(=O)O)cc1N=N/C(=N/Nc1cc(S(=O)(=O)O)ccc1OC)C(=O)Nc1ccccc1 | inactive |  |  |

| SMILES | outcome | EC50 | IC50 |
| --- | --- | --- | --- |
| Cc1cc(NCCCCCCCNc2cc(C)nc3cc([N+](=O)[O-])ccc23)c2ccc([N+](=O)[O-])cc2n1 | inactive |  |  |
| O=C(C/C(=N\NC(=O)C[n+]1ccccc1)C(=O)Nc1nc2ccc([N+](=O)[O-])cc2s1)CC(c1ccccc1)c1c(O)c2ccccc2oc1=O (centres undefined) |  | > 2.75 µM | > 2.75 µM |
| COC1OC(COC(=O)c2ccccc2)C(OC(=O)c2ccccc2)C1NC(C)=O (centres undefined) |  | > 200 µM | > 200 µM |
| Cc1nc2cccc(F)c2c(=O)n1-c1nnc(C2CC2)s1 |  | > 200 µM | > 200 µM |
| CC1NC(=O)CNC(=O)CNC(=O)C(Cc2ccc(O)cc2)NC(=O)C(C(C)C)NC(=O)C(C)NC1=O (centres undefined) (cyclo(GGAAVY); configuration not given here) | inactive |  |  |
| O=C1c2cc3c(cc2CC12Cc1cc4c(cc1C2=O)CCC4)CCC3 |  | 158 µM | > 200 µM |
| O=C(/C=C(\N=P(c1ccccc1)(c1ccccc1)c1ccccc1)C(F)(F)C(F)(F)C(F)(F)C(F)(F)C(F)(F)C(F)(F)C(F)(F)F)c1ccccc1 |  | > 200 µM | > 200 µM |
| CCOC(=O)c1cc2cc(C)cc(C(=O)c3ccc([N+](=O)[O-])cc3)c2[nH]1 |  | > 200 µM | > 200 µM |
| O=C(c1ccc(Cl)cc1)N(C(=S)N1CCN(c2ccccn2)CC1)c1ccccc1 |  | > 30.9 µM | > 30.9 µM |
| Cc1cc(-c2ccco2)oc(=O)c1NC(=O)c1cnccn1 |  | > 200 µM | > 200 µM |
| Cc1cccc(Nc2nc3ccccc3nc2NS(=O)(=O)c2ccccc2)c1 |  | > 100 µM | 15.5 µM |
| O=C1CC(=O)NC(=NNS(=O)(=O)c2ccc(Cl)cc2)N1 |  | > 200 µM | > 200 µM |
| O=C(CO[N+](=O)[O-])OC/C=C/c1ccccc1 | inactive |  |  |
| CC(C)OP(=O)(OC(C)C)c1ccc2c(c1)OCCOCCOCCOCCO2 |  | > 200 µM | > 200 µM |
| O=C(O)C12C3C4C1C1C2C3C41C(=O)O (centres undefined) |  | > 200 µM | > 200 µM |
| Cc1nc(C2CCC3C4CCC5=CC(=O)CCC5(C)C4CCC23C)co1 (centres undefined) | inactive |  |  |
| CC(C)=CCN1c2ccc(Cl)cc2NC(=O)CC1C (centres undefined) |  | > 87.1 µM | 49 µM |
| Nc1nc(N)nc(-c2cnccn2)n1 |  | > 200 µM | > 200 µM |
| c1onc2c1CCCC2 (tested in a mixture with another compound) |  | > 1620 µM | > 1620 µM |
| CCCC1N=C(c2ccccc2)C2C(c3ccc([N+](=O)[O-])cc3)N12 (centres undefined) |  | > 200 µM | 148 µM |
| Nc1ncnc2c1ncn2C1OC(CO)CC1O (centres undefined) | inactive |  |  |
| CC1NOC(=O)C1N=Nc1ccc(Cl)cc1Cl (centres undefined) |  | > 36.3 µM | > 36.3 µM |

| SMILES | outcome | EC50 | IC50 |
| --- | --- | --- | --- |
| O=C1CCCCc2scc(C(=O)O)c2N1 |  | > 1120 µM | > 1120 µM |
| CC1=Nc2ccc(C)cc2N=C(C)C1 |  | > 200 µM | > 200 µM |
| COc1cccc(NC(=O)C(=O)C(C(=O)c2ccccc2F)C2OC(=O)c3ccccc32)c1 (centres undefined) |  | > 288 µM | 10.7 µM |
| O=C(NNC(=S)NC1CC(c2ccccc2)Oc2ccccc21)c1ccccc1 (centres undefined) | inactive |  |  |
| C/C=C/C#CC#CC(O)C(/C=C/CCCO)OC1OC(COC2OC(CO)C(O)C(O)C2O)C(O)C(O)C1O (centres undefined) |  | > 447 µM | > 447 µM |
| O=C(/C=C\c1ccccc1)c1ccc(-c2cccc(-c3ccccc3)c2)cc1 |  | > 200 µM | 110 µM |
| C/C(CC(O)(C(F)(F)F)C(F)(F)F)=N\O |  | > 200 µM | > 200 µM |
| O=NN(CCCl)C(=O)NC1CCCCC1 |  | > 1070 µM | 35.5 µM |
| O=CN(CCNc1ccccc1)c1ccccc1 |  | > 200 µM | > 200 µM |
| CCOC(=O)/C(O)=C/c1cc(=O)n(C)c2ccccc12 |  | > 200 µM | > 200 µM |
| CC(=O)CC(C)(C)S(=O)(=O)O |  | > 200 µM | > 200 µM |
| CCN(CC)C(=O)C1C[C@@H](O)CN1C(=O)c1ccc(OC)c(OC)c1 (some centres undefined) |  | > 200 µM | > 200 µM |
| Cc1ccc(S(=O)(=O)c2ccc([N+](=O)[O-])cc2)cc1 | inactive |  |  |
| COc1ccc2c(N=[N+]=[N-])c(-c3ccccc3)c(=O)oc2c1 | inactive |  |  |
| CN(C)CCOc1ccc(-c2c(Oc3ccccc3)c(=O)oc3ccccc23)cc1 |  | > 200 µM | 8.71 µM |
| Cc1ccc(Nc2nc(NS(=O)(=O)c3cc(C)c(Cl)cc3S)n(C)n2)cc1 |  | > 200 µM | 105 µM |
| NC(Cc1ccccc1)C(=O)NC(Cc1ccccc1)NC(=O)C(Cc1c[nH]c2ccccc12)C(=O)O (centres undefined) | inactive |  |  |
| CC1=NN(C(=O)CC(=O)Nc2ccc(C)cc2)C(=O)C1N=Nc1ccc(S(N)(=O)=O)cc1 (centres undefined) |  | > 0.631 µM | > 0.631 µM |
| OC1c2ccccc2CCC1C(O)(C(F)(F)F)C(F)(F)F (centres undefined) |  | > 200 µM | 85.1 µM |
| CCCCCCCc1cc(OC(=O)c2c(C)cc(OC)cc2O)cc(O)c1C(=O)O |  | > 162 µM | 83.2 µM |
| CC(C)(C)c1cc(C=C(C#N)C#N)cc(C(C)(C)C)c1O |  | > 20 µM | 0.372 µM |
| O=C1CCCC2=C1CC1=C(CCCC1=O)N2c1ccccc1 |  | > 100 µM | > 100 µM |

| SMILES | outcome | EC50 | IC50 |
| --- | --- | --- | --- |
| N#CCCN(CCC#N)c1ccc(/C=C(/NC(=O)c2cc([N+](=O)[O-])ccc2Cl)C(=O)NN)cc1 |  | > 10.7 µM | > 10.7 µM |
| CCOC(=O)/C(C#N)=C/c1cccc(F)c1 |  | > 162 µM | > 162 µM |
| COC(C(=O)C(O)C(C)O)C1Cc2cc3cc(OC4CC(OC5CC(O)C(O)C(C)O5)C(O)C(C)O4)c(C)c(O)c3c(O)c2C(=O)C1OC1CC(OC2CC(O)C(OC3CC(C)(O)C(O)C(C)O3)C(C)O2)C(O)C(C)O1 (centres undefined) | inactive |  |  |
| O=S(=O)(O)SCCCNCCCCCCNCCCSS(=O)(=O)O |  | > 200 µM | 129 µM |
| CN(C)c1ccc2c(c1)-c1cc(N(C)C)ccc1C2=CC=C1C(=O)NC(=O)NC1=O |  | > 3.39 µM | > 3.39 µM |
| C(=C\c1ccccc1)/c1ccccc1 |  | > 200 µM | > 200 µM |
| Nc1nc(N)c(N=O)c(N)n1 |  | > 200 µM | 170 µM |
| Oc1ccccc1C(Nc1nc2ccccc2s1)c1ccc2cccnc2c1O (centres undefined) |  | > 33.9 µM | 2.57 µM |
| O=S1(=O)c2ccccc2-c2ccccc21 | inactive |  |  |
| CCOC(=O)C1(Br)C(c2ccccc2)NC(=O)N(C2OC(COC(=O)c3ccccc3)C(OC(=O)c3ccccc3)C2OC(=O)c2ccccc2)C1(C)Br (centres undefined) |  | > 15.8 µM | > 15.8 µM |
| [Zn+2].c1ccc(-c2c3nc(c(-c4ccccc4)c4[n-]c(c(-c5ccccc5)c5nc(c(-c6ccccc6)c6[n-]c2c2ccccc62)-c2ccccc2-5)c2ccccc42)-c2ccccc2-3)cc1 |  | > 50.1 µM | > 50.1 µM |
| COc1cc2c3c(c1OC)-c1cc4c(cc1CC3(C#N)N(C(=O)c1ccccc1)CC2)OCO4 (centres undefined) | inactive |  |  |
| O=C1NC(c2ccc(O)cc2)C2CCC1C2 (centres undefined) |  | > 1150 µM | 955 µM |
| OCCNc1nc(Cl)nc(Cl)n1 |  | > 200 µM | > 200 µM |
| Cc1ccccc1NC(=O)C(=O)CC(=O)c1sc(-n2nc(-c3ccccc3)cc2-c2ccccc2)nc1C |  | > 479 µM | > 479 µM |
| CCCCCCCCCCCC(=O)OCCOCCOCCOCCOCCOCCOCCOCCOCCO |  | > 200 µM | 145 µM |
| FC(F)(F)c1ccc2c3c(c4c(c2n1)OCN(Cc1ccc(Cl)cc1Cl)C4)CN(Cc1ccc(Cl)cc1Cl)CO3 |  | 0.282 µM | 4.37 µM |
| Nc1ccc2oc(=O)ccc2c1 |  | > 1260 µM | 8.91 µM |
| COC(=O)C(=Cc1cc(OC)c(OC)c(OC)c1-c1cc2c(cc1C1(C)OCCS1)OCO2)C(=O)OC (centres undefined) |  | > 18.6 µM | 15.5 µM |
| Cc1cccc(NC(=S)Nc2ccc([N+](=O)[O-])cc2)n1 |  | > 200 µM | > 200 µM |
